Reference: patent US7041681B2, “Compounds as opioid receptor modulators” (Janssen Pharmaceutica N.V., priority 2002, dated 2006)

Assays:
mu opioid receptor = target: T1, mu opioid receptor (Rattus norvegicus, UniProt P33535); test: Rat Brain mu Opioid Receptor Binding Assay; settings: rat forebrain membranes, ~0.8 nM [3H]DAMGO, 25° C., 2.5 h; read-out: μ-opioid binding (Ki)
T1 construct: from tissue; host or cells: rat forebrain homogenate (Wistar rat)
Procedure: (§1) Male, Wistar rats (150–250 g, VAF, Charles River, Kingston, N.Y.) are killed by cervical dislocation, and their brains removed and placed immediately in ice cold Tris HCl buffer (50 mM, pH 7.4). The forebrains are separated from the remainder of the brain by a coronal transection, beginning dorsally at the colliculi and passing ventrally through the midbrain-pontine junction. After dissection, the forebrains are homogenized in Tris buffer in a Teflon®-glass homogenizer. The homogenize is diluted to a concentration of 1 g of forebrain tissue per 80 mL Tris and centrifuged at 39,000×g for 10 min. The pellet is resuspended in the same volume of Tris buffer containing 5 mM MgCl2 with several brief pulses from a Polytron homogenizer. This particulate preparation is used for the mu-opioid binding assays. Following incubation with the mu selective peptide ligand ˜0.8 nM [^3H]DAMGO at 25° C. for 2.5 h in a 96-well plate with total 1 ml, the plate contents are filtered through Wallac filtermat B sheets on a Tomtec 96-well harvester. The filters are rinsed three times with 2 mL of 10 mM HEPES (pH7.4), and dried in a microwave oven 1:45 min twice. To each sample area 2×40 μl of Betaplate Scint scintillation fluid (LKB) is added and analyzed on a LKB (Wallac) 1205 BetaPlate liquid scintillation counter.
(§2) The data are used to calculate either the % inhibition compared to control binding (when only a single concentration of test compound is evaluated) or a Ki value (when a range of concentrations is tested). % inhibition is calculated as: [(total dpm-test compound dpm dpm)/(total dpm-nonspecific dpm)]*100. Kd and Ki values were calculated using GraphPad PRISM data analysis program.

delta opioid receptor = target: T2, delta opioid receptor (Rattus norvegicus, UniProt P33533); test: Rat Brain Delta Opioid Receptor Binding Assay; settings: rat forebrain membranes, ~4 nM [3H]DPDPE, 25° C., 2.5 h; read-out: δ-opioid binding (Ki)
T2 construct: from tissue; host or cells: rat forebrain homogenate (Wistar rat)
Procedure: as §1, with “delta opioid” for “mu-opioid”, “delta” for “mu”, “˜4” for “˜0.8”, “[^3H]DPDPE” for “[^3H]DAMGO”, “total volume of” for “total”
as §2

T2 sequence (P33533 whole entry): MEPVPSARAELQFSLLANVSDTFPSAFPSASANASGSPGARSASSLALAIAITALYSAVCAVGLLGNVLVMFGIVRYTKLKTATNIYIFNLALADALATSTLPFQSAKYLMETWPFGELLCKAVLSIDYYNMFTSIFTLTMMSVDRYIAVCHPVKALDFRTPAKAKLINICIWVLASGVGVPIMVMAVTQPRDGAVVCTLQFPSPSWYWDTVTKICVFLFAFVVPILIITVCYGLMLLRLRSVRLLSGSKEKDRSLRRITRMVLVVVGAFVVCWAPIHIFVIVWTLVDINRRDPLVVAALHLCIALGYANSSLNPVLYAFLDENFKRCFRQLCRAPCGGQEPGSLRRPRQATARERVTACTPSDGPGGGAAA
T1 sequence (P33535 whole entry): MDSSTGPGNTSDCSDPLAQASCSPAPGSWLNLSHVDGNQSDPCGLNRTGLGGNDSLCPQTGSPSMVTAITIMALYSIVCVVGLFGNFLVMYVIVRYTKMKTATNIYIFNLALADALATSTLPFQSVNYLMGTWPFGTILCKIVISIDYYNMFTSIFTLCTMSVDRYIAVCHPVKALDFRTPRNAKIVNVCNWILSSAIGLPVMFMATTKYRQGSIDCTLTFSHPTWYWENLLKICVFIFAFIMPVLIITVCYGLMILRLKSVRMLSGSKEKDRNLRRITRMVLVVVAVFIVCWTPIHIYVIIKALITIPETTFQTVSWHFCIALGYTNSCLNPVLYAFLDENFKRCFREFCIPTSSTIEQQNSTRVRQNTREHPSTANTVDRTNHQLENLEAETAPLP

SMILES | Ki (mu opioid receptor) [nM] | Ki (delta opioid receptor) [nM]
N[C@@H](Cc1cccc(O)c1)C(=O)N1CCCC[C@H]1c1nc(-c2ccccc2)c[nH]1 [Cmpd 22] | 16 | 433
N[C@@H](Cc1ccc(O)c([N+](=O)[O-])c1)C(=O)N1CCCC[C@H]1c1nc(-c2ccccc2)c[nH]1 [Cmpd 17] | 320 | 5120
CNC(=O)c1ccc(C[C@H](N)C(=O)N2Cc3ccccc3C[C@H]2c2nc(-c3ccccc3)c[nH]2)cc1 [Cmpd 117] | 23.6 | 1.61
Cc1cc(C(N)=O)cc(C)c1C[C@H](N)C(=O)N1Cc2ccccc2C[C@H]1c1nc(-c2ccccc2)c[nH]1 [Cmpd 105] | 1.44 | 0.06
Cc1cc(O)cc(C)c1C[C@H](NC=O)C(=O)N1CCCC[C@H]1c1nc(-c2ccccc2)c[nH]1 [Cmpd 37] | 13.3 | 5230
CN(C)C(=O)c1ccc(C[C@H](N)C(=O)N2CCCC[C@H]2c2nc(-c3ccccc3)c[nH]2)cc1 [Cmpd 4] | 135 | 764
Cc1cc(O)cc(C)c1CC(N)C(=O)N1Cc2ccccc2CC1c1nc(-c2ccccc2)c[nH]1 (stereo not shown) [Cmpd 131] | 0.3 | 0.09
N[C@@H](Cc1ccc(S(N)(=O)=O)cc1)C(=O)N1Cc2ccccc2C[C@H]1c1nc(-c2ccccc2)c[nH]1 [Cmpd 104] | 592 | 174
N[C@@H](Cc1cccc(O)c1)C(=O)N1Cc2ccccc2C[C@H]1c1nc(-c2ccccc2)c[nH]1 [Cmpd 161] | 480 | 133
O=C([C@H](Cc1ccc(O)cc1)NCc1ccccc1)N1Cc2ccccc2C[C@@H]1c1nc(-c2ccccc2)c[nH]1 [Cmpd 134] | 329 | 10000
CCN[C@@H](Cc1ccc(O)cc1)C(=O)N1Cc2ccccc2C[C@@H]1c1nc(-c2ccccc2)c[nH]1 [Cmpd 136] | 229 | 116
N#Cc1cccc(C[C@H](N)C(=O)N2CCCC[C@H]2c2nc(-c3ccccc3)c[nH]2)c1 [Cmpd 8] | 207 | 10000
CS(=O)(=O)Nc1ccc(CC(N)C(=O)N2Cc3ccccc3CC2c2nc(-c3ccccc3)c[nH]2)cc1 (stereo not shown) [Cmpd 114] | 356 | 342
C[C@](N)(Cc1ccc(OCc2ccccc2)cc1)C(=O)N1Cc2ccccc2C[C@H]1c1nc(-c2ccccc2)c[nH]1 [Cmpd 122] | 2520 | 346
CC(C)NC(Cc1ccc(O)cc1)C(=O)N1Cc2ccccc2CC1c1nc(-c2ccccc2)c[nH]1 (stereo not shown) [Cmpd 138] | 10000 | 397
N[C@@H](Cc1ccc(Cl)cc1)C(=O)N1Cc2ccccc2C[C@H]1c1nc(-c2ccccc2)c[nH]1 [Cmpd 144] | 5260 | 1130
Cc1cc(O)cc(C)c1CC(N)C(=O)N1CCCCC1c1nc(-c2ccccc2)c[nH]1 (stereo not shown) [Cmpd 34] | 0.05 | 1.86
N[C@@H](Cc1ccc(C(=O)Nc2ccccc2)cc1)C(=O)N1Cc2ccccc2C[C@H]1c1nc(-c2ccccc2)c[nH]1 [Cmpd 111] | 293 | 103
CN1CCN(C(=O)c2ccc(C[C@H](N)C(=O)N3Cc4ccccc4C[C@H]3c3nc(-c4ccccc4)c[nH]3)cc2)CC1 [Cmpd 102] | 1240 | 5350
NC(=O)c1ccc(C[C@H](N)C(=O)N2CCCC[C@H]2c2nc(-c3ccccc3)c[nH]2)cc1 [Cmpd 15] | 2.6 | 65.3
N[C@@H](Cc1cc(F)c(O)c(F)c1)C(=O)N1CCCC[C@H]1c1nc(-c2ccccc2)c[nH]1 [Cmpd 24] | 9.27 | 5660
CN[C@@H](Cc1c(C)cc(O)cc1C)C(=O)N1CCCC[C@H]1c1nc(-c2ccccc2)c[nH]1 [Cmpd 28] | 0.3 | 21.5
COc1cc(C)c(C[C@H](N)C(=O)N2CCCC[C@H]2c2nc(-c3ccccc3)c[nH]2)c(C)c1 [Cmpd 27] | 8.56 | 1000
N[C@@H](Cc1ccc(S(N)(=O)=O)cc1)C(=O)N1CCCC[C@H]1c1nc(-c2ccccc2)c[nH]1 [Cmpd 5] | 40.8 | 6180
Nc1cc(C[C@H](N)C(=O)N2CCCC[C@H]2c2nc(-c3ccccc3)c[nH]2)ccc1O [Cmpd 16] | 115 | 5330
CC(=O)Oc1cc(C)c(CC(N)C(=O)N2Cc3ccccc3CC2c2nc(-c3ccccc3)c[nH]2)c(C)c1 (stereo not shown) [Cmpd 113] | 0.5 | 0.2
